Assay results published in ChEMBL document CHEMBL3217668, “3-Formylchromone based topoisomerase II inhibitors: discovery of potent leads” (Medchemcomm, 2013).
pIC50: −log10 of the molar value. Calls of active or inactive are those of the source. The rule behind the calls is not given here.

Key:
PC-3 = assay: Cytotoxicity against human PC3 cells assessed as cell survival after 48 hrs by MTT assay; format: functional; conditions: PC-3, 48 h, read-out: LC50 (the source's name)
[1] = biological target: T1, DNA topoisomerase 2-alpha (Homo sapiens, UniProt P11388); assay: Inhibition of human topoisomerase-2alpha-mediated supercoiled pRYG DNA relaxation at 100 uM after 30 mins by agarose gel electrophoresis
Nucleic Acid [2] = assay: Binding affinity to Escherichia coli plasmid DNA assessed as intercalation at 100 uM after 20 mins by agarose gel electrophoresis; format: nucleic-acid assay
[3] = biological target: T1, DNA topoisomerase 2-alpha; assay: Inhibition of human topoisomerase-2alpha-mediated kDNA decatenation at 100 uM after 30 mins by agarose gel electrophoresis
[4] = biological target: T1, DNA topoisomerase 2-alpha; assay: Inhibition of human topoisomerase-2alpha-mediated kDNA decatenation after 30 mins by agarose gel electrophoresis
Nucleic Acid [5] = assay: Binding affinity to Escherichia coli plasmid DNA assessed as intercalation at 1 ug/mL after 20 mins by agarose gel electrophoresis; format: nucleic-acid assay

T1 sequence (P11388 whole entry): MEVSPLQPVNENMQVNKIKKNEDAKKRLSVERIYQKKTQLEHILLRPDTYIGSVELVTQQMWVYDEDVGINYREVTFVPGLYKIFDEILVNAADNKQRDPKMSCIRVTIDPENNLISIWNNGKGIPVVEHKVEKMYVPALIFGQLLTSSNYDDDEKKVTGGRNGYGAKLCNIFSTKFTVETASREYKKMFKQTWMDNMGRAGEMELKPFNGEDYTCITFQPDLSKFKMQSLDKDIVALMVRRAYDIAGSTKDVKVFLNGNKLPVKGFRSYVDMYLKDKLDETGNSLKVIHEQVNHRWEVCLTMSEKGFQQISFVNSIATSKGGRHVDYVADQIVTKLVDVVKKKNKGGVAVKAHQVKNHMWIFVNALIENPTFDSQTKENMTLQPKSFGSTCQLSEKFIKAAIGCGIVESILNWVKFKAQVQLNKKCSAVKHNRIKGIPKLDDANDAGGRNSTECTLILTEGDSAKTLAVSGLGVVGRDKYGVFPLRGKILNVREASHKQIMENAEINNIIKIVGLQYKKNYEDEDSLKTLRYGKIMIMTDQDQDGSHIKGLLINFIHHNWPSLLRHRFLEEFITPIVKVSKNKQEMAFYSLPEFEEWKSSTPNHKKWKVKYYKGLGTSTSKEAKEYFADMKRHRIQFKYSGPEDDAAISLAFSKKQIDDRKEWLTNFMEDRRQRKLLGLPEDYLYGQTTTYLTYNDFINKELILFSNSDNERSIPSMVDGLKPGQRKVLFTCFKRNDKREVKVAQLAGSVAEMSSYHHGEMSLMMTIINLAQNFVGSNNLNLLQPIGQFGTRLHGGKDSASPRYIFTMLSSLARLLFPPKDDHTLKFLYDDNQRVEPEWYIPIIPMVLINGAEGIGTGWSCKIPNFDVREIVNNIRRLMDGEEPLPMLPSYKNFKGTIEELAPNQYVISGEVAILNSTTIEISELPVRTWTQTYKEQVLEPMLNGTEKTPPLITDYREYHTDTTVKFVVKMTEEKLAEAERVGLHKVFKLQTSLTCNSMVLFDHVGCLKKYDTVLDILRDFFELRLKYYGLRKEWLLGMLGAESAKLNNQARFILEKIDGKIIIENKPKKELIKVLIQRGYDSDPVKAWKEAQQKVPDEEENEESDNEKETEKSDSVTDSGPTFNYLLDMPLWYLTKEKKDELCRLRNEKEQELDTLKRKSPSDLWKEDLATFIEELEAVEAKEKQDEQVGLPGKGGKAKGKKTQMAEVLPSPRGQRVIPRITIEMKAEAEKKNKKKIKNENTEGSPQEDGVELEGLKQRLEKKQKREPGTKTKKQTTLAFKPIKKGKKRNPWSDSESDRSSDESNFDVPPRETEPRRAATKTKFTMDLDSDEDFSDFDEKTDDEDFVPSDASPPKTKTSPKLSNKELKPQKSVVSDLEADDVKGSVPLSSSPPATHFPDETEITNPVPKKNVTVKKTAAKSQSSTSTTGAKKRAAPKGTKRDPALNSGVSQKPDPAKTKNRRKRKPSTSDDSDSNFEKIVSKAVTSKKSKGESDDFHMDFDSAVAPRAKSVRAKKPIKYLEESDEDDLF

SMILES | CC50 (PC-3) [µM] | inhibition [1] | Activity (Nucleic Acid [2]) | inhibition [3] | pIC50 [4] | Activity (Nucleic Acid [5])
O=Cc1c(Nc2ccccc2)oc2ccccc2c1=O | 8.2 | Active | inactive | Active |  | 
O=Cc1c(Nc2ccccc2)oc2ccc(Cl)cc2c1=O | 8.3 | Active | inactive | Active |  | 
COc1cc([C@@H]2c3cc4c(cc3[C@@H](O[C@@H]3O[C@@H]5CO[C@@H](C)O[C@H]5[C@H](O)[C@H]3O)[C@H]3COC(=O)[C@H]23)OCO4)cc(OC)c1O [ETOPOSIDE] | 7.5 | Active | inactive | Active |  | 
O=Cc1coc2ccc(Cl)cc2c1=O | 5.7 | Active | inactive | Active |  | 
CN(c1ccccc1)c1oc2ccccc2c(=O)c1C=O | 0.5 | Active | inactive |  | 4.17 | 
CN(c1ccccc1)c1oc2ccc(Cl)cc2c(=O)c1C=O | 2.1 | Active | inactive | Active |  | 
O=Cc1c(Nc2ccccc2)oc2ccc(F)cc2c1=O | 8.6 | Active | inactive | Active |  | 
CC[n+]1c(-c2ccccc2)c2cc(N)ccc2c2ccc(N)cc21 |  |  |  |  |  | Active
O=Cc1c(Nc2ccccc2)oc2cc(Cl)ccc2c1=O | 2.5 | Active | inactive | Active |  | 
